Results taken from ChEMBL document CHEMBL5360557 (Eur J Med Chem, 2023).
pIC50, pKi: −log10 of the molar value. Calls of active or inactive are those of the source. No cut-off for these calls is given here.

Experiments:
[1] = target: T1, Acetylcholinesterase (Homo sapiens, UniProt P22303); test: Inhibition of recombinant human AChE using acetylthiocholine iodide as substrate preincubated with enzyme for 5 mins followed by substrate addition and measured after 1 min by Ellman's method
[2] = Cytotoxicity against human HepG2 cells assessed as inhibition of cell growth incubated for 24 hrs by MTT assay; assay type: toxicity, cell-based
[3] = in vitro; conditions: PAMPA
Description: Permeability of the compound incubated for 3 to 6 hrs by PAMPA-BBB assay

[4] = target: T2, Cholinesterase (Homo sapiens, UniProt P06276); test: Inhibition of recombinant human BuChE using butyrylthiocholine iodide as substrate preincubated with enzyme for 5 mins followed by substrate addition and measured after 1 min by Ellman's method
T2 sequence (P06276 whole entry): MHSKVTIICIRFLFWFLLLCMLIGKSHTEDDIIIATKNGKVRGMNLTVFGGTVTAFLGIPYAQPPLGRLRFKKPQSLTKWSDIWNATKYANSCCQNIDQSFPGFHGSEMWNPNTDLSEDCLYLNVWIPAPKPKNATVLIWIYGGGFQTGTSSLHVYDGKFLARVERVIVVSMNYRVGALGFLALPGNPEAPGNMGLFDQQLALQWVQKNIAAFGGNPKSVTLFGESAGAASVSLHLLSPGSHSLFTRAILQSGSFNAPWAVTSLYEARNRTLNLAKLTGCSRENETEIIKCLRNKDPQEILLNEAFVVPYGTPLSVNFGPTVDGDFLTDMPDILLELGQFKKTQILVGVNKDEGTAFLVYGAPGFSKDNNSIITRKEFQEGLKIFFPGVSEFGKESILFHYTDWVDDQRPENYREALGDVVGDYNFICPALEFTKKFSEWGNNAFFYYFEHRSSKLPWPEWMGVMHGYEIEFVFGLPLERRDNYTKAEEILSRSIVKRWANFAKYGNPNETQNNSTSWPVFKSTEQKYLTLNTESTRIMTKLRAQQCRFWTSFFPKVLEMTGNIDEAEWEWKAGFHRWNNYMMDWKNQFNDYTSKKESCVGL

[5] = target: T2, Cholinesterase; test: Competitive inhibition of human BuChE using butyrylthiocholine iodide as substrate assessed as inhibition constant preincubated with enzyme for 5 mins followed by substrate addition and measured after 1 min by Lineweaver-Burk plot based Ellman's method
[6] = target: T2, Cholinesterase; test: Competitive inhibition of human BuChE using butyrylthiocholine iodide as substrate assessed as increase in Km with constant apparent Vmax preincubated with enzyme for 5 mins followed by substrate addition and measured after 1 min by Lineweaver-Burk plot based Ellman's method; conditions: time 6.0 min
[7] = target: T2, Cholinesterase; test: Inhibition of recombinant human BuChE using butyrylthiocholine iodide as substrate at 10 uM preincubated with enzyme for 5 mins followed by substrate addition and measured after 1 min by Ellman's method relative to control; conditions: time 6.0 min
[8] = Cytotoxicity against human SH-SY5Y cells assessed as inhibition of cell growth incubated for 24 hrs by MTT assay; assay type: toxicity, cell-based
[9] = target: T1, Acetylcholinesterase; test: Inhibition of human AChE using acetylthiocholine iodide as substrate incubated for 1 min by spectrophotometry based Ellman's method
[10] = target: T2, Cholinesterase; test: Inhibition of human BuChE using butyrylthiocholine iodide as substrate incubated for 1 min by spectrophotometry based Ellman's method
[11] = species: Homo sapiens; test: Selectivity ratio of IC50 for inhibition of human AChE using acetylthiocholine as substrate to IC50 for inhibition of human BuChE using butyrylthiocholine iodide as substrate

T1 sequence (P22303 whole entry): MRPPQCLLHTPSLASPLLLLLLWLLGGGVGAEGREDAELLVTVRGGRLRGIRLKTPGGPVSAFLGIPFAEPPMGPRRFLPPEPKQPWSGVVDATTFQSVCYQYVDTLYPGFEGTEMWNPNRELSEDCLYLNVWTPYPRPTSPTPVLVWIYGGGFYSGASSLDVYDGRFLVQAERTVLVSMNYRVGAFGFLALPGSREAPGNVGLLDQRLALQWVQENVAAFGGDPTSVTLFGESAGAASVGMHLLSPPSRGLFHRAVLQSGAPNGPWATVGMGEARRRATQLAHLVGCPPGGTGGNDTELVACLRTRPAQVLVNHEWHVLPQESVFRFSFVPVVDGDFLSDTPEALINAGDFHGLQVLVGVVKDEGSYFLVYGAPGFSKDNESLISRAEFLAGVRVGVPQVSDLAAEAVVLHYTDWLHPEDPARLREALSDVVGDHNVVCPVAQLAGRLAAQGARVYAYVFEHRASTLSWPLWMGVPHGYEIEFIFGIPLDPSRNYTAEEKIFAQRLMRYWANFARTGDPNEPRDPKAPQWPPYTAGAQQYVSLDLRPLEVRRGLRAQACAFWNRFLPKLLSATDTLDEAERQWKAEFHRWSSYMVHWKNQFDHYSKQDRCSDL

SMILES | pIC50 [1] | IC50 at 24 h [2] [µM] | Papp [3] [×10⁻⁶ cm/s] | pIC50 [4] | pKi [5] | inhibition [6] | inhibition [7] [%] | IC50 at 24 h [8] [µM] | pIC50 [9] | pIC50 [10] | Ratio IC50 [11]
COc1cccc(CN(CCCc2ccccc2F)C2CCC2)c1OCc1ccccc1 | < 5.00 | 76 | 60 | 8.40 | 8.39 | Active | 99 | 87 | – | – | –
CN(CCc1ccc(O)cc1)Cc1cc2c(cc1-c1cccc3c1N(C)CC3)OCO2 | – | – | – | – | – | – | – | – | < 4.00 | – | –
CCCN(CCCc1cccc(F)c1)Cc1cccc(OC)c1OCc1ccccc1 | < 5.00 | 41 | 27 | 7.41 | – | – | 97 | 123 | – | – | –
COc1cc(CN(C)CCc2ccc(O)cc2)c(-c2cccc3c2N(C)CC3)cc1OC | – | – | – | – | – | – | – | – | < 4.00 | 6.04 | –
CCCN(CCc1ccc(O)cc1)Cc1cccc(OC)c1OCc1ccccc1 | < 5.00 | 43 | 14 | 7.05 | – | – | 95 | 44 | – | – | –
CCCN(CCCc1ccc(F)cc1)Cc1cccc(OC)c1OCc1ccccc1 | < 5.00 | 32 | 61 | 7.00 | – | – | 96 | 170 | – | – | –
CCCCCCN(CCCc1ccccc1)Cc1cccc(OC)c1OCc1ccccc1 | < 5.00 | 106 | 9 | 7.40 | – | – | 95 | 110 | – | – | –
C=CCCN(CCCc1ccccc1)Cc1cccc(OC)c1OCc1ccccc1 | < 5.00 | 92 | 33 | 7.15 | – | – | 97 | 131 | – | – | –
COc1cccc(CNCCc2ccc(O)cc2)c1OCc1ccccc1 | < 5.00 | – | 19 | 6.70 | – | – | 94 | – | – | – | > 42
CCCN(C/C=C/c1ccccc1)Cc1cccc(OC)c1OCc1ccccc1 | < 5.00 | 36 | 41 | 7.40 | – | – | 97 | 174 | – | – | –
CCCN(CCCc1ccccc1)Cc1cccc(OC)c1OCc1ccccc1 | < 5.00 | 48 | 32 | 7.40 | – | – | 98 | > 63 | – | – | –
